From US12576099B2, “Ribose-modified cap analog and use thereof” (Beijing Youcare Kechuang Pharmaceutical Technology Co., Ltd., priority 2024, dated 2026)

How the values were obtained:
[1] = molecular target: T7 RNA polymerase (Escherichia phage T7, UniProt P00573); assay: Capping rate of mRNA transcription initiated by cap analogs (LC-MS); type: biochemical; conditions: for Capping rate: LC-MS of mRNA 5′ fragment
How it was run: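 mRNA was transcribed from linearized DNA template with T7 RNA polymerase, NTPs and cap analog for 2 h at 37 °C, then DNase-treated and purified. Product was annealed to a probe and captured on magnetic beads, and the 5′ fragment was released by RNase H (3 h, 37 °C). Capping rate was determined by LC-MS from the mass difference between capped and uncapped ends.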

[2] = molecular target: T1, DCP2 enzyme (Schizosaccharomyces pombe, UniProt O13828); assay: Decapping enzyme stability test; type: biochemical; conditions: for Decapping rate (%) of DCP2 enzyme: 50 U mRNA decapping enzyme, 37° C., 45 minutes
T1 construct: purchased New England Biolabs
T1 sequence (O13828 1-243 limits assumed): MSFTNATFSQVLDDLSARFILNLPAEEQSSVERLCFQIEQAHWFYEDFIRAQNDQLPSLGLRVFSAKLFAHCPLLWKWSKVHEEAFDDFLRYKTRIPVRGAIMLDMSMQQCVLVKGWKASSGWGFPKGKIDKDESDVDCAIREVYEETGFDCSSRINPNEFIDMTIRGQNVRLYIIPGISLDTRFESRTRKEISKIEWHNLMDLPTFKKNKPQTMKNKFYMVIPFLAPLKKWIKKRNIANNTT
T1 sequence (Q9P805 1-127 partner): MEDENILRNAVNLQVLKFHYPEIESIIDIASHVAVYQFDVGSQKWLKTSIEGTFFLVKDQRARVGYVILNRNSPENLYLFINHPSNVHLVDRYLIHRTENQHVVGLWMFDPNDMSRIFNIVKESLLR
T1 sequence (Q10108 155-180 partner limits assumed): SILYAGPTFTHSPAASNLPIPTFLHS
How it was run: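 PAGE-purified RNA ([…]) incubated with 50 U mRNA decapping enzyme in 1×MDE buffer at 37° C. for 45 minutes. Products resolved by PAGE, SYBR Green II stained; decapping rate derived from capped-to-decapped band intensity ratio.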

[3] = system: BALB/C mice; assay: In vivo imaging of Fluc-mRNA LNP expression in mice; conditions: for Total radiation intensity: 5 μg Fluc-mRNA LNP intramuscular, mice
How it was run: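 Luciferase expression was imaged by IVIS as total radiation intensity, 5 min after intraperitoneal substrate, at 6, 12, 24, 48, 96 and 168 h. Dosing was intramuscular LNP with 5 μg cap analog Fluc-mRNA in female BALB/C mice; results are fold versus the m6A group.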

Sequence of T7 RNA polymerase (P00573 whole entry, the tested form may be a part): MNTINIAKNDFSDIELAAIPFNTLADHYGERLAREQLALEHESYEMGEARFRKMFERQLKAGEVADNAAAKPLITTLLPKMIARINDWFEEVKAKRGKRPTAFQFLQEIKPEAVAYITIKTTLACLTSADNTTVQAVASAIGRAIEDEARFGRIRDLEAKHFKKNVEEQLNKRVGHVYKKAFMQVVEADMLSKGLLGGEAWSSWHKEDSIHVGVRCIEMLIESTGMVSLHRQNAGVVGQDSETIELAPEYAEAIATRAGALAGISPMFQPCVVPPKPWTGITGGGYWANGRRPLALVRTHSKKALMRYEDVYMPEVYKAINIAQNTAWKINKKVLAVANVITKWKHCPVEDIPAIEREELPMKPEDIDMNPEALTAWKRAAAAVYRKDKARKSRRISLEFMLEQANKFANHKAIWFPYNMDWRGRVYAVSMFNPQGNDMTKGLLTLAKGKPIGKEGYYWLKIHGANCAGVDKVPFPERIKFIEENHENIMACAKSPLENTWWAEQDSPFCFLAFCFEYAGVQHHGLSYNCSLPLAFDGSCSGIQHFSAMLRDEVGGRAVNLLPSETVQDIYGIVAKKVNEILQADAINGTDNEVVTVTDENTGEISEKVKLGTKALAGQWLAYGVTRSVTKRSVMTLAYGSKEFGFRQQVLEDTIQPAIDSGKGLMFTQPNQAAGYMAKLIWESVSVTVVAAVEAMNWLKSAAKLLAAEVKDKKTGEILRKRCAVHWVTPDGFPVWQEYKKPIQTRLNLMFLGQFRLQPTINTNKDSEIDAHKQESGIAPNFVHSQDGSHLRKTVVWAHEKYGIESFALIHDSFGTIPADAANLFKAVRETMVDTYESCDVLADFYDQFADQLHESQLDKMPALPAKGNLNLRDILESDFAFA

| SMILES | Capping rate [1] [%] | Increase relative to 5227 (capping rate) [1] [%] | Decapping rate (%) of DCP2 enzyme [2] [%] | Decrease relative to N-7113 (decapping rate) [2] [%] | Multiple of total radiation intensity relative to m6A ([3]; 6 h) | Total radiation intensity ([3]; 6 h) | Multiple of total radiation intensity relative to m6A ([3]; 12 h) | Total radiation intensity ([3]; 12 h) | Multiple of total radiation intensity relative to m6A ([3]; 24 h) | Total radiation intensity ([3]; 24 h) | Multiple of total radiation intensity relative to m6A ([3]; 48 h) | Total radiation intensity ([3]; 48 h) | Multiple of total radiation intensity relative to m6A ([3]; 96 h) | Total radiation intensity ([3]; 96 h) | Total radiation intensity ([3]; 168 h) |
| --- | --- | --- | --- | --- | --- | --- | --- | --- | --- | --- | --- | --- | --- | --- | --- |
| CO[C@@H]1[C@H](OP(=O)(O)OC[C@H]2O[C@@H](n3cnc4c(=O)[nH]c(N)nc43)[C@H](O)[C@@H]2O)[C@@H](COP(=O)(O)OP(=O)(O)OP(=O)(O)OC[C@@]2(CF)O[C@@H]([n+]3cn(C)c4c(=O)[nH]c(N)nc43)[C@H](O)[C@@H]2O)O[C@H]1n1cnc2c(N)ncnc21 [YK-CAP-118] | 97.2 | 35.2 | 11.9 | 31.9 | 3.0 | 7.06 ×108 p/s | 3.0 | 6.28 ×108 p/s | 3.1 | 2.03 ×108 p/s | 2.6 | 1.33 ×108 p/s | 1.2 | 0.35 ×108 p/s | 0.02 ×108 p/s |
| CO[C@@H]1[C@H](OP(=O)(O)OC[C@H]2O[C@@H](n3cnc4c(=O)[nH]c(N)nc43)[C@H](O)[C@@H]2O)[C@@H](COP(=O)(O)OP(=O)(O)OP(=O)(O)OC[C@@]2(OC)O[C@@H]([n+]3cn(C)c4c(=O)[nH]c(N)nc43)[C@H](O)[C@@H]2O)O[C@H]1n1cnc2c(N)ncnc21 [compound 5227, reference compound] | 71.9 | 0 | 23.2 | 20.6 | 1.0 | 2.38 ×108 p/s | 0.7 | 1.45 ×108 p/s | 0.8 | 0.53 ×108 p/s | 0.9 | 0.48 ×108 p/s | 0.9 | 0.07 ×108 p/s | 0.02 ×108 p/s |
| CO[C@@H]1[C@H](OP(=O)(O)OC[C@H]2O[C@@H](n3cnc4c(=O)[nH]c(N)nc43)[C@H](O)[C@@H]2O)[C@@H](COP(=O)(O)OP(=O)(O)OP(=O)(O)OC[C@@]2(C(F)F)O[C@@H]([n+]3cn(C)c4c(=O)[nH]c(N)nc43)[C@H](O)[C@@H]2O)O[C@H]1n1cnc2c(N)ncnc21 [YK-CAP-119] | 96.3 | 33.9 | 11.4 | 32.4 | 3.2 | 7.47 ×108 p/s | 3.1 | 6.65 ×108 p/s | 3.3 | 2.15 ×108 p/s | 2.4 | 1.26 ×108 p/s | 1.3 | 0.25 ×108 p/s | 0.02 ×108 p/s |
| CO[C@@H]1[C@H](OP(=O)(O)OC[C@H]2O[C@@H](n3cnc4c(=O)[nH]c(N)nc43)[C@H](O)[C@@H]2O)[C@@H](COP(=O)(O)OP(=O)(O)OP(=O)(O)OC[C@H]2O[C@@H]([n+]3cn(C)c4c(=O)[nH]c(N)nc43)[C@H](O)[C@@H]2C(C)F)O[C@H]1n1cnc2c(N)ncnc21 (stereo partly drawn) [YK-CAP-109] | 95.2 | 32.4 | 17.3 | 26.5 | 2.6 | 6.04 ×108 p/s | 2.8 | 5.84 ×108 p/s | 2.8 | 1.85 ×108 p/s | 1.0 | 0.54 ×108 p/s | 2.7 | 0.14 ×108 p/s | 0.03 ×108 p/s |
